In US20070275935A1, “Estratriene Derivatives” (priority 2003, published 2007):

What was measured:
[1] = system: Human airway smooth muscle (HASM) cells; experiment: bFGF-induced proliferation of human airway smooth muscle (HASM) cells, cell number after 48 h; format: cell-based; details: bFGF 300 pM, mean ± SEM (n), without analogue 135.8 ± 3.7
Description: Human airway smooth muscle (HASM) cells were cultured from macroscopically normal bronchi (0.5-2 cm diameter) obtained from lung resection or heart-lung transplant specimens provided by the Alfred Hospital (Melbourne) according to methods published in detail previously (Fernandes et al., 1999).
Approximately 0.1 g of smooth muscle was stripped from the wall of the bronchus for each cell culture. Dissected tissue was immersed in Dulbecco's modified Eagle's medium (DMEM) (Flow Laboratories, Scotland), supplemented with 100 U/mL penicillin G (CSL, Australia) and 100 ug/mL streptomycin (CSL, Australia). The tissue was rinsed in phosphate buffered saline (PBS; Oxoid, England) and the airway smooth muscle was chopped into 2 mm^3 pieces and digested for 2 hours in DMEM containing elastase (0.5 mg/mL: Worthington Biochemical, USA) followed by a 12 hour incubation in DMEM containing collagenase (1 mg/mL) (Worthington Biochemical, USA), at 37° C. with agitation.
The resulting cell suspension was centrifuged and washed three times in phosphate buffered saline (PBS). Following the last centrifugation step, the cells were resuspended in 25 mL of DMEM supplemented with L-glutamine (2 mM: Sigma, USA), penicillin G (100 U/mL), streptomycin (100 μg/mL), amphotericin B (2 μg/mL: Wellcome, UK) and heat-inactivated FCS (10% v/v: CSL, Australia) and seeded into 25 cm^2 culture flasks. The primary isolates were incubated for 7 to 14 days to reach confluence.
Cells were harvested weekly by 10 min exposure to trypsin (0.5%: CSL, Australia) and EDTA (1 mM in PBS: BDH, Australia) and passaged at a 1:3 ratio into 75 cm^2 flasks.
The activity of the compounds has been established in cell culture by exploring their effects on mitogen-induced increases in cell number. […]
Data are expressed as a percentage of the cell number in vehicle treated wells and are presented as the mean and standard error of the mean.

[2] = system: type II airway epithelial cell line, A549; experiment: Proliferation of A549 cells in response to 5% FCS; format: cell-based, human; details: for effect on proliferation of A549 cells, in words (FIG. 2): 5% FCS, 48 h; for A549 PIC50 / IC50: proliferation in response to 5% FCS, pIC50 of 4.00 = inactive; for IC50: Homo sapiens, A549, read-out: A549 PIC50 (converted)
[3] = system: bovine aortic vascular smooth muscle; experiment: bFGF-induced proliferation of bovine aortic vascular smooth muscle; format: cell-based; details: 3 μM
Description: Experiments were also carried out with bovine aortic vascular smooth muscle with a more limited set of compounds.

[4] = system: Human airway smooth muscle (HASM) cells; experiment: Thrombin-induced proliferation of human airway smooth muscle (HASM) cells, cell number after 48 h; format: cell-based; details: for Cell number (% control) Thrombin (0.3 U/ml): 30 min pre-incubation, mean ± SEM (n), without analogue 133.5 ± 4.1; for Cell number (% control) Thrombin (0.3 U/ml) / inhibition of thrombin-mediated HASM proliferation, in words (FIG. 1): 48 h; for HASM-Thr pIC50 / IC50: negative log of the concentration that reduces the thrombin-induced proliferative response by 50%, pIC50 of 4.00 = inactive; for HASM- Thr pIC25 / HASM- Thr pIC75: two site model, thrombin-induced proliferation; for HASM- Thr pIC25: first phase (inhibition up to 50%); for HASM- Thr pIC75: second phase (inhibition up to 100%); for inhibition of thrombin-mediated HASM proliferation, in words (FIG. 1): thrombin 0.3 U/ml; for IC50: Homo sapiens, read-out: HASM-Thr pIC50 (converted)
Summary of the method: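 Primary human bronchial smooth muscle cells seeded at 1.5×10^4 cells/cm², serum-starved 24 h, pre-incubated with compound 30 min, then stimulated 48 h with thrombin 0.3 U/ml. Cells counted by haemocytometer with trypan blue; pIC50 as negative log concentration halving proliferative response.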

HASM cells = experiment: Shape of HASM cells in the presence of thrombin; format: cell-based, human; details: thrombin 0.3 U/mL, 48 h
Description: The effects of 2MEO and 4NOM on the shape of HASM in the presence thrombin (0.3 U/mL) was investigated. Analogues were pre-incubated with HASM for 30 min before the addition of thrombin. The incubation continued for 48 h before capturing images of the HASM.

[5] = system: bovine aortic endothelial cells (BAEC); experiment: Proliferation of bovine aortic endothelial cells in response to 5% FCS; format: cell-based
Description: The effects of 4NO were evaluated in a number of non-smooth muscle cell types including the type II airway epithelial cell line, A549 (ATCC accession number ATCC CCL-185 Lung carcinoma human) (FIG. 2); the human breast tumour cell line, MCF7, (ATTC accession number ATCC HTB-22 breast adenocarcinoma, human) which expresses the estrogen receptor (FIG. 3); and in bovine aortic endothelial cells (BAEC) (FIG. 4).
The effects of test compounds were examined on proliferation of A549 cells in response to 5% fetal calf serum (FCS). Analogues were pre-incubated with A549 cells for 30 min before the addition of FCS. The incubation continued for 48 h before cell enumeration. Data are expressed as a percentage of the cell number in vehicle treated wells and are presented as the mean and standard error of the mean. Similarly the effects of 2MEO and 4NO on proliferation of MCF7 in response to 5% FCS or epidermal growth factor (EGF, 300 pM) were examined, as were the effects of 2MEO and 4NO on proliferation of BAEC in response to 5% FCS. The incubation parameters were the same as described above and results are presented as the mean and standard error of the mean.

[6] = system: GM-CSF production by Human Airway Smooth Muscle Cells; experiment: Interleukin-1α-mediated GM-CSF production by HASM cells (ELISA); format: cell-based; details: for HASM - GM-CSF: inhibition of interleukin-1α (1 ng/ml)-mediated GM-CSF production, concentration not given, * not defined
NIH3T3 cells = experiment: Thrombin-induced proliferation of NIH3T3 cells; format: cell-based; details: concentration not given
Airway fibroblasts = experiment: bFGF-induced proliferation of airway fibroblasts from airway biopsies; format: cell-based; details: 3 μM
Description: Airway fibroblasts were also obtained by explant culture from airway biopsies.

| SMILES | A549 PIC50 [2] | reduction of bFGF (300 pM) induced proliferation [3] [%] | HASM-Thr pIC50 [4] | HASM- Thr pIC25 [4] | HASM- Thr pIC75 [4] | HASM - GM-CSF [6] | inhibitory effect on thrombin-induced proliferation (NIH3T3 cells) [%] | Cell number (% control) bFGF ([1]; analogue 1 μM) | Cell number (% control) Thrombin (0.3 U/ml) ([4]; analogue 1 μM) | inhibition of thrombin-mediated HASM proliferation, in words (FIG. 1) [4] | reduction of bFGF (300 pM) induced proliferation (Airway fibroblasts) [%] | IC50 [2] [nM] | IC50 [4] [nM] | also measured |
| --- | --- | --- | --- | --- | --- | --- | --- | --- | --- | --- | --- | --- | --- | --- |
| COc1cc2c(cc1O)CC[C@@H]1[C@@H]2CC[C@]2(C)[C@@H](O)CC[C@@H]12 [2-methoxyestradiol, reference compound] | 6.00 | 87±6 | 5.49 | 5.94 | 4.98 | 29 ± 10* | – | – | – | – | – | – | – | Cell number (% control) bFGF ([1]; analogue 10 μM): 87.5 ± 13.8 (4) % control; effect on proliferation of A549 cells, in words (FIG. 2) ([2]; concentration not given): effective inhibitor; Cell number (% control) Thrombin (0.3 U/ml) ([4]; analogue 10 μM): 100.9 ± 8.1 (13) % control; effect on the shape of HASM cells (HASM cells; 10 μM): caused extensive rounding of cells; effect on proliferation of BAEC, in words (FIG. 4) ([5]; concentration not given): effective inhibitor |
| COc1cc2c(cc1O)C(=NOCc1ccc([N+](=O)[O-])cc1)C[C@@H]1[C@@H]2CC[C@]2(C)[C@@H](O)CC[C@@H]12 [CP-DM-2-11-7, 2-methoxy-6-(4-nitrobenzyloxy)iminoestradiol] | 4.89 | 75±14 | 6.90 | 8.82 | 5.66 | 45 ± 8* | 26±12 | 116.6 ± 6.6 (14) % control | 111.1 ± 6.9 (13) % control | inhibitory activity on proliferation of HASM cells over a wide concentration range (10 nM to 10 μM) | 55±20 | – | – | effect on proliferation of A549 cells, in words (FIG. 2) ([2]; concentrations below 3 μM): no detectable effect; effect on the shape of HASM cells (HASM cells; 1 μM): no detectable effects on the shape of the HASM cells; effect on proliferation of BAEC, in words (FIG. 4) ([5]; concentrations below 3 μM): no detectable effect; reduction of GM-CSF production, in words (FIG. 7) ([6]; interleukin-1α 1 ng/ml): reduced GM-CSF production to greater extent than 2MEO |
| COc1cc2c(cc1O)C(=NOCc1ccc([N+](=O)[O-])cc1)C[C@@H]1[C@@H]2CC[C@]2(C)C(=NO)CC[C@@H]12 [CP-DM-3-91, 2-methoxy-6-(4-nitrobenzyloxy)iminoestrone-17-oxime] | 4.99 | 93±4 | 7.59 | 10.32 | 5.70 | 43 ± 11* | 68±10 | 111.1 ± 10.9 (4) % control | 117.5 ± 8.5 (8) % control | considerably more potent than either 2MEO or 4NO | 50±24 | – | – | – |
| C[C@]12CC[C@@H]3c4ccc(O)cc4CC[C@H]3[C@@H]1CC/C2=N\OCc1cccc([N+](=O)[O-])c1 [CP-DM-3-102, estrone-17-(3-nitrobenzyl)oxime] | – | – | – | 8.03 | 5.99 | – | – | – | – | – | – | 12600 | 89.1 | – |
| COc1cc2c(cc1O)/C(=N/OCc1cc(F)cc(F)c1)C[C@@H]1[C@@H]2CC[C@]2(C)[C@@H](O)CC[C@@H]12 [CP-DM-4-35, 6-(3,5-difluorobenzyloxy)imino-2-methoxyestradiol] | – | – | – | 7.80 | 5.75 | – | – | – | – | – | – | 3160 | 141 | – |
| COc1cc2c(cc1O)/C(=N/OCc1ccc(SC(F)(F)F)cc1)C[C@@H]1[C@@H]2CC[C@]2(C)[C@@H](O)CC[C@@H]12 [CP-DM-4-65, 2-methoxy-6-(4-trifluoromethylthiobenzyloxy)iminoestradiol] | – | – | – | – | – | 28 ± 31 | – | – | – | – | – | 3160 | 224 | – |
